Biological target: T1, WIZ protein (HiBit-WIZ fusion protein) (Homo sapiens, UniProt O95785+Q96SW2)
T1 construct: expressed in transfected cells
Experiment: Quantification of WIZ protein levels in HiBit tag fusion protein assay (WIZ HiBit assay in 293T cells)
Type: cell-based
Conditions: for Dmax at 25 µM / remaining activity at 25 µM: HEK-293T, 293T cells; for Dmax at 25 µM: 100 − Amax, read-out: % degradation of WIZ (100 − Amax); for remaining activity at 25 µM: DMSO-normalized, curve-fitted percentage of WIZ-HiBit remaining at 25 uM, read-out: WIZ Amax; for DC50: WIZ HiBit assay in 293T cells, 10-point, 5-fold dose response, highest concentration 25 μM, about 18 hours, read-out: WIZ AC50
Procedure, shortened: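 Luminescence after LgBit complementation quantified remaining HiBit-WIZ in lysates of single-copy stable 293T lines. Cells dosed ~18 h at 37 °C with 10-point, 5-fold dilutions (highest 25 μM); DMSO set to 100%, fitted curve gave % remaining at 25 μM (Amax).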

T1 sequence (O95785 whole entry, the tested form may be a part): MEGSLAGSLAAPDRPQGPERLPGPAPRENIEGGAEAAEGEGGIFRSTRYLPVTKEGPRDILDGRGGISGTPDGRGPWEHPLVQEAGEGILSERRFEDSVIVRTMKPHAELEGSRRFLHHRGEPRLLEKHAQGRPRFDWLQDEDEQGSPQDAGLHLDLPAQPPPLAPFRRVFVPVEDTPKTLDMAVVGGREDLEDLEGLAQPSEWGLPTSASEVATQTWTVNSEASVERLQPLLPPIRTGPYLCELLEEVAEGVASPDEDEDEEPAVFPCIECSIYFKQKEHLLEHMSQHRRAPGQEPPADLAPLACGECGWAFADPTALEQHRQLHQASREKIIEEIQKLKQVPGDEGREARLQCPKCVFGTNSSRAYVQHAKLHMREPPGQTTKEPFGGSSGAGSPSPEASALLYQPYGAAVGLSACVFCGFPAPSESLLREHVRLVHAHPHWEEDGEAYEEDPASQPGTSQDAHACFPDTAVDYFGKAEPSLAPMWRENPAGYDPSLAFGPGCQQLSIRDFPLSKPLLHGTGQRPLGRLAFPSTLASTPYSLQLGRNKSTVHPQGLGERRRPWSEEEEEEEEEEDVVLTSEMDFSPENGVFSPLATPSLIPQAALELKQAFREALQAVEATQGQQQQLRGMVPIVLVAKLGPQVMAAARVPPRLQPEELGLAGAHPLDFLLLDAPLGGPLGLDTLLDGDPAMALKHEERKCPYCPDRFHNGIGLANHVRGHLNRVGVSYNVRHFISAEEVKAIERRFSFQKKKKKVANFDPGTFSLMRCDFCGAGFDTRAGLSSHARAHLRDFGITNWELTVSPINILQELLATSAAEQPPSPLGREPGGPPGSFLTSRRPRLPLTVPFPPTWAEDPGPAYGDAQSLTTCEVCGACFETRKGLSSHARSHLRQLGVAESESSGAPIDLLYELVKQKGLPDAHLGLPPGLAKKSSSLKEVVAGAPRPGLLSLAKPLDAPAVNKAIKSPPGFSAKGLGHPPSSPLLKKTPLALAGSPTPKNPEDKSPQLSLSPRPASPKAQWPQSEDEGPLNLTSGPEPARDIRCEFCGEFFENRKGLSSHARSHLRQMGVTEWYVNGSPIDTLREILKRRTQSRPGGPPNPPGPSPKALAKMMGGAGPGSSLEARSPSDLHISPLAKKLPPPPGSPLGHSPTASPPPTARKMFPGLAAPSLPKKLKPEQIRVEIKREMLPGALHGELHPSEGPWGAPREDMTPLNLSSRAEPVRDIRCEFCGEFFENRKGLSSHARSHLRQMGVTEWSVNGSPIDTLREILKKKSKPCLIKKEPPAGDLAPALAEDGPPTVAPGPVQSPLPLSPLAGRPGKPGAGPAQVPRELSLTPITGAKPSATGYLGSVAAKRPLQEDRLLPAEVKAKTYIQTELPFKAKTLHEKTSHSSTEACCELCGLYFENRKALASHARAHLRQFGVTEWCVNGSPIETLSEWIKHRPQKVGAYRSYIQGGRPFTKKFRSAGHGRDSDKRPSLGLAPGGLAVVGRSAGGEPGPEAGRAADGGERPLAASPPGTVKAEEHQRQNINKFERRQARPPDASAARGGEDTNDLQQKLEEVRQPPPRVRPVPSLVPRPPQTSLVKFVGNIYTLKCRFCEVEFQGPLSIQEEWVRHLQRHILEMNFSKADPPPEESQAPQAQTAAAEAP
T1 sequence (Q96SW2 whole entry, the tested form may be a part): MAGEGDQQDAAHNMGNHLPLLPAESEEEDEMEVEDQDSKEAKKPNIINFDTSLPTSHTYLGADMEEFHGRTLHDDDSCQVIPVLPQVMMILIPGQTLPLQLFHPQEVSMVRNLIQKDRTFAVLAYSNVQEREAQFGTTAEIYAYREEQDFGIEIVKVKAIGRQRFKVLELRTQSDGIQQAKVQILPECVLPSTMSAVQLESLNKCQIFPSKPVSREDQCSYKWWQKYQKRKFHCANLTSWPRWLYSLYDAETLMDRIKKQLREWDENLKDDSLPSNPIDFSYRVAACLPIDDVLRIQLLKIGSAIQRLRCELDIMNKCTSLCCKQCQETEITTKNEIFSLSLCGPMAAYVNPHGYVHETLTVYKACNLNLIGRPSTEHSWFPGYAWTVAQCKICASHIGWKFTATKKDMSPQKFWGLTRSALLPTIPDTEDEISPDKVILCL
T1 sequence (Q16531 whole entry partner, the tested form may be a part): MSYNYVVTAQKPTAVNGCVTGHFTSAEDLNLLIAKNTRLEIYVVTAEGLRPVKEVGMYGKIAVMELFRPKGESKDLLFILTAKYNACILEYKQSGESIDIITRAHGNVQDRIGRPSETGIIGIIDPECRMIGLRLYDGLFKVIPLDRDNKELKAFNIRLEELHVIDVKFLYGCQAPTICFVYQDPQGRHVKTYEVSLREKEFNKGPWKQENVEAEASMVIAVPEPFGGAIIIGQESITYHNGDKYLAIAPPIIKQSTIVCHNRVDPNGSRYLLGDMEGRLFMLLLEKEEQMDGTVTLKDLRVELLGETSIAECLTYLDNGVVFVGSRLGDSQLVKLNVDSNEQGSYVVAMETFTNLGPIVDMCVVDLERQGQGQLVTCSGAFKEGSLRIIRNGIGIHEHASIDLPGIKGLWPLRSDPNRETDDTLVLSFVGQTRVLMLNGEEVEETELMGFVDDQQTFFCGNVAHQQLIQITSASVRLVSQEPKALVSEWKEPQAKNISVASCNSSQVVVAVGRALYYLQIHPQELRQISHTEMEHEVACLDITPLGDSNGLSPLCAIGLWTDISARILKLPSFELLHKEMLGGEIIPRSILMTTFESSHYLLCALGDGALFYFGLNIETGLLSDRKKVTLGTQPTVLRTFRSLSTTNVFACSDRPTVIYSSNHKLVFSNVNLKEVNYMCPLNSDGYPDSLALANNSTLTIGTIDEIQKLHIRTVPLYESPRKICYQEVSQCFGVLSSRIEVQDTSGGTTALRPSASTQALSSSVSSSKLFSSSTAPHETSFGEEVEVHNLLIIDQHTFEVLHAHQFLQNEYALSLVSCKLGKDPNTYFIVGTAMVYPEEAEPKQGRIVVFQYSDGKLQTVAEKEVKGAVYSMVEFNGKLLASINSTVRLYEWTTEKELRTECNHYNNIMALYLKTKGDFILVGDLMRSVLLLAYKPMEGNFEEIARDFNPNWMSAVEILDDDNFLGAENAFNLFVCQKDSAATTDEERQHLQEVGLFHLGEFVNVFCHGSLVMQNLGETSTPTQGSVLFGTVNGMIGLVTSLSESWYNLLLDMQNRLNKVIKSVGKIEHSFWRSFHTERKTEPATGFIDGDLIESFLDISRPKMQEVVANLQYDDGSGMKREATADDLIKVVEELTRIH

Dmax at 25 µM [%] | remaining activity at 25 µM [%] | DC50 [nM] | SMILES
65 | 35 | 37 | O=C1CCN(c2cnn3ccc(CC4CCN(Cc5cccc(F)c5F)CC4)cc23)C(=O)N1 [Example 53, 1-(5-((1-(2,3-difluorobenzyl)piperidin-4-yl)methyl)pyrazolo[1,5-a]pyridin-3-yl)dihydropyrimidine-2,4(1H,3H)-dione]
62 | 38 | 6520 | COC(=O)N1CCC(Cc2ccn3ncc(N4CCC(=O)NC4=O)c3c2)CC1 [Example 93]
33 | 67 | > 25000 | O=C1CCN(c2cnn3ccc(CC4CCN(C(=O)c5ccccc5)CC4)cc23)C(=O)N1 [Example 101]
0 | 100 | > 25000 | CC(C)S(=O)(=O)N1C[C@H]2C[C@@H]1CN2Cc1ccn2ncc(N3CCC(=O)NC3=O)c2c1 [Example 239, 1-(5-(((1R,4R)-5-(isopropylsulfonyl)-2,5-diazabicyclo[2.2.1]heptan-2-yl)methyl)pyrazolo[1,5-a]pyridin-3-yl)dihydropyrimidine-2,4(1H,3H)-dione]
90 | 10 | 0.4 | C[C@H]1C[C@H](Cc2ccn3ncc(N4CCC(=O)NC4=O)c3c2)CCN1CC1CCC(C)(C)CC1 [Example 149]
84 | 16 | 6 | C[C@H]1C[C@H](Cc2ccn3ncc(N4CCC(=O)NC4=O)c3c2)CCN1C[C@H]1CCC(F)(F)C1 [Example 307, 1-(5-(((2S,4R)-1-(((S)-3,3-difluorocyclopentyl)methyl)-2-methylpiperidin-4-yl)methyl)pyrazolo[1,5-a]pyridin-3-yl)dihydropyrimidine-2,4(1H,3H)-dione]
69 | 31 | 148 | C[C@H]1CN(Cc2ccn3ncc(N4CCC(=O)NC4=O)c3c2)C[C@H](C)N1CC1CCCCC1 [Example 258, 1-(5-(((3S,5S)-4-(cyclohexylmethyl)-3,5-dimethylpiperazin-1-yl)methyl)pyrazolo[1,5-a]pyridin-3-yl)dihydropyrimidine-2,4(1H,3H)-dione]
89 | 11 | 378 | Cc1cn(-c2cnn3ccc(C[C@@H]4CCN(CC(C)C)[C@@H](C)C4)cc23)c(=O)[nH]c1=O [Example 347, 1-(5-(((2S,4R)-1-isobutyl-2-methylpiperidin-4-yl)methyl)pyrazolo[1,5-a]pyridin-3-yl)-5-methylpyrimidine-2,4(1H,3H)-dione]
86 | 14 | 14 | CC(C)CN1CC[C@H](Cc2ccn3ncc(N4CCC(=O)NC4=O)c3c2)C[C@H]1C [Example 153]
76 | 24 | 73 | C[C@H]1CN(Cc2ccn3ncc(N4CCC(=O)NC4=O)c3c2)CCN1C1COC1 [Example 331]
34 | 66 | 1340 | O=C1CCN(c2cnn3ccc(CC4CCNCC4)cc23)C(=O)N1 [Example 108, 1-(5-(piperidin-4-ylmethyl)pyrazolo[1,5-a]pyridin-3-yl)dihydropyrimidine-2,4(1H,3H)-dione]
89 | 11 | 3 | C[C@H]1C[C@@H](Cc2ccn3ncc(N4CCC(=O)NC4=O)c3c2)CCN1CC1CCOCC1 [Example 73]
76 | 24 | 561 | CCCN1CCN(Cc2ccn3ncc(N4CCC(=O)NC4=O)c3c2)CC1 [Example 163]
19 | 81 | 754 | CC(C)S(=O)(=O)N1C[C@@H]2C[C@H]1CN2Cc1ccn2ncc(N3CCC(=O)NC3=O)c2c1 [Example 238, 1-(5-(((1S,4S)-5-(isopropylsulfonyl)-2,5-diazabicyclo[2.2.1]heptan-2-yl)methyl)pyrazolo[1,5-a]pyridin-3-yl)dihydropyrimidine-2,4(1H,3H)-dione]
77 | 23 | 285 | O=C1CCN(c2cnn3ccc(CC4CCN(S(=O)(=O)C5CC5)CC4)cc23)C(=O)N1 [Example 89]
79 | 21 | 20 | C[C@H]1C[C@H](Cc2ccn3ncc(N4CCC(=O)NC4=O)c3c2)CCN1CC(F)(F)F [Example 275, 1-(5-(((2S,4R)-2-methyl-1-(2,2,2-trifluoroethyl)piperidin-4-yl)methyl)pyrazolo[1,5-a]pyridin-3-yl)dihydropyrimidine-2,4(1H,3H)-dione]

Dmax at 25 µM [%] | remaining activity at 25 µM [%] | DC50 [nM] | SMILES
63 | 37 | 204 | O=C1CCN(c2cnn3ccc(CC4CCN(Cc5ccc(OC(F)(F)F)cc5)CC4)cc23)C(=O)N1 [Example 56, 1-(5-((1-(4-(trifluoromethoxy)benzyl)piperidin-4-yl)methyl)pyrazolo[1,5-a]pyridin-3-yl)dihydropyrimidine-2,4(1H,3H)-dione]
86 | 14 | 128 | CC(C)CN1CCN(Cc2ccn3ncc(-n4cc(F)c(=O)[nH]c4=O)c3c2)C[C@@H]1C [Example 358, (S)-5-fluoro-1-(5-((4-isobutyl-3-methylpiperazin-1-yl)methyl)pyrazolo[1,5-a]pyridin-3-yl)pyrimidine-2,4(1H,3H)-dione]
85 | 15 | 2 | C[C@H]1C[C@H](Cc2ccn3ncc(N4CCC(=O)NC4=O)c3c2)CCN1C[C@H]1CC[C@H](C(F)(F)F)CC1 [Example 305, 1-(5-(((2S,4R)-2-methyl-1-(((1r,4S)-4-(trifluoromethyl)cyclohexyl)methyl)piperidin-4-yl)methyl)pyrazolo[1,5-a]pyridin-3-yl)dihydropyrimidine-2,4(1H,3H)-dione]
63 | 37 | 33 | Cc1ccc(F)cc1CN1CCC(Cc2ccn3ncc(N4CCC(=O)NC4=O)c3c2)CC1 [Example 58, 1-(5-((1-(5-fluoro-2-methylbenzyl)piperidin-4-yl)methyl)pyrazolo[1,5-a]pyridin-3-yl)dihydropyrimidine-2,4(1H,3H)-dione]
48 | 52 | 206 | CC1(C)CN(Cc2ccn3ncc(N4CCC(=O)NC4=O)c3c2)CCN1CC1CCOCC1 [Example 232, 1-(5-((3,3-dimethyl-4-((tetrahydro-2H-pyran-4-yl)methyl)piperazin-1-yl)methyl)pyrazolo[1,5-a]pyridin-3-yl)dihydropyrimidine-2,4(1H,3H)-dione]
87 | 13 | 68 | C[C@H]1CN(Cc2ccn3ncc(N4CCC(=O)NC4=O)c3c2)CCN1C1CCCCC1 [Example 333]
68 | 32 | 77 | CC(C)CN1CC[C@@H](Cc2ccn3ncc(N4CCC(=O)NC4=O)c3c2)C[C@H]1C [Example 77]
87 | 13 | 55 | O=C1CCN(c2cnn3ccc(CC4CCN(S(=O)(=O)CC5CC5)CC4)cc23)C(=O)N1 [Example 84]
28 | 72 | 82 | O=C1CCN(c2cnn3ccc(CC4CCN(C(=O)CCC5CCCCC5)CC4)cc23)C(=O)N1 [Example 103]
88 | 12 | 4 | C[C@H]1C[C@H](Cc2ccn3ncc(N4CCC(=O)NC4=O)c3c2)CCN1CC1CCCCC1 [Example 143]
82 | 18 | 3 | CO[C@H]1C[C@@H](CN2CCC(Cc3ccn4ncc(N5CCC(=O)NC5=O)c4c3)CC2)C1 [Example 300, 1-(5-((1-(((1s,3s)-3-methoxycyclobutyl)methyl)piperidin-4-yl)methyl)pyrazolo[1,5-a]pyridin-3-yl)dihydropyrimidine-2,4(1H,3H)-dione]
80 | 20 | 18 | C[C@H]1C[C@H](Cc2ccn3ncc(N4CCC(=O)NC4=O)c3c2)CCN1S(C)(=O)=O [Example 284]
73 | 27 | 31 | O=C1CCN(c2cnn3ccc(CC4CCN(Cc5cncc(F)c5)CC4)cc23)C(=O)N1 [Example 33, 1-(5-((1-((5-fluoropyridin-3-yl)methyl)piperidin-4-yl)methyl)pyrazolo[1,5-a]pyridin-3-yl)dihydropyrimidine-2,4(1H,3H)-dione]
70 | 30 | 23 | O=C1CCN(c2cnn3ccc(CC4CCN(Cc5ccc(F)c(F)c5)CC4)cc23)C(=O)N1 [Example 45, 1-(5-((1-(3,4-difluorobenzyl)piperidin-4-yl)methyl)pyrazolo[1,5-a]pyridin-3-yl)dihydropyrimidine-2,4(1H,3H)-dione]
78 | 22 | 25 | CC(c1cccnc1)N1CCC(Cc2ccn3ncc(N4CCC(=O)NC4=O)c3c2)CC1 (stereo not drawn) [Example 21, 1-(5-((1-(1-(pyridin-3-yl)ethyl)piperidin-4-yl)methyl)pyrazolo[1,5-a]pyridin-3-yl)dihydropyrimidine-2,4(1H,3H)-dione]
55 | 45 | 326 | CC(C)(F)CN1CCN(Cc2ccn3ncc(N4CCC(=O)NC4=O)c3c2)CC1 [Example 169]

— patent US11787785B2 (NOVARTIS AG, priority 2021, dated 2023)
